Read-outs that look alike come from different tables or passages of the source.
Key:
[1] = Pharmacokinetic testing of salt forms, oral dosing in rats (Example 5); format: in vivo; conditions: fasted male Sprague-Dawley rats, mean values
[2] = Solid state stability at 40° C./75% RH for 3 weeks (HPLC purity, form change); format: physicochemical; conditions: for chemical stability (HPLC purity change, in words): 3 weeks at 40° C. and 75% relative humidity; for Form Change at 3 weeks / HPLC Purity at 3 weeks: 3 weeks under 40° C./75% RH; for Initial HPLC Purity: before storage
Method: Agilent 1260 HPLC was utilized and detailed chromatographic conditions for purity and solubility measurement are listed in Table 15 below.
The table below summarizes the characterization and solid state stability results observed for FB and Forms A, B, and D. Samples were prepared and data was obtained according to the procedures and processes listed above unless otherwise specified. More procedures, processes, and results are listed below in Table 16.

[3] = Dynamic Vapor Sorption (DVS), hygroscopicity/water uptake; format: physicochemical; conditions: for Hygroscopicity: DVS up to 80% RH at 25° C.; for water uptake at 80% RH: DVS; for water uptake at 80% RH / Form change (FC) after DVS: 25° C.; for Form change (FC) after DVS: at the end of the DVS test, up to 80% RH
Method: The Dynamic Vapour Sorption studies were performed using a Surface Measurement Systems Ltd. DVS-1 No Video, equipment #2126. The sample is loaded into balance pan, typically 20-30 mg, and equilibrated at 0% RH. […] After completion of the sorption cycle, the sample was dried using the same method. The software used for data collection is DVSWin v3.01 No Video. Data analysis is performed using DVS Standard Analysis Suite v6.3.0 (Standard).

[4] = Kinetic solubility in bio-relevant buffers (FaSSIF, FeSSIF, SGF); format: physicochemical; conditions: 37° C.
[5] = pH solubility in pH 2, 4, 6, 8 and 10 buffers; format: physicochemical; conditions: 37° C.; for Form change (FC) of residual solid, pH 4.0: pH 4.0 buffer; for Form change (FC) of residual solid, pH 6.0: pH 6.0 buffer; for Form change (FC) of residual solid, pH 8.0: pH 8.0 buffer; for Form change (FC) of residual solid, pH 10.0: pH 10.0 buffer
[6] = Stability studies of crystalline forms (Table 17, stability by HPLC); format: physicochemical; conditions: for Stability by HPLC (in words): stability studies of Table 17; for Stability Results, 40° C.: stored at 40° C.; for Stability Results, 40° C./75% RH: stored at 40° C./75% RH; for Stability Results, 60° C.: stored at 60° C.; for Stability Results, 60° C./75% RH: stored at 60° C./75% RH
[7] = Moisture sorption isotherm of crystalline forms; format: physicochemical; conditions: for crystal form by XRPD after the moisture absorption/desorption cycle: XRPD before and after moisture sorption isotherm
[8] = Salt screening, stability of salt forms; format: physicochemical; conditions: salt screening of Compound 1
Method: The salt screen was performed using the Crystal16 equipment.

[9] = dose mg/kg: Compound 1 18.2, Phosphate 14.3, Tartrate 18.7, Malate 18.6, Succinate 18.7, Benzenesulfonate 17.6

## CN1CCN(Cc2ccc(Nc3ncc(Cl)c(Nc4ccccc4S(=O)(=O)N(C)C)n3)cc2)CC1 [Compound 1, 2-((5-chloro-2-((4-((4-methylpiperazin-1-yl)methyl)phenyl)amino)pyrimidin-4-yl)amino)-N,N-dimethylbenzenesulfonamide]
[1]; rat, plasma, 18.2 mg/kg, dose mg/kg: Compound 1 18.2, Phosphate 14.3, Tartrate 18.7, Malate 18.6, Succinate 18.7, Benzenesulfonate 17.6
  bioavailability: 26.9%
[1]; rat, plasma, 18.2 mg/kg, dose mg/kg: Compound 1 18.2, Phosphate 14.3, Tartrate 18.7, Malate 18.6, Succinate 18.7, Benzenesulfonate 17.6, read-out: AUC0-24 hours
  AUC(0-t): 458 ng·h/mL
[1]; rat, plasma, 18.2 mg/kg, dose mg/kg: Compound 1 18.2, Phosphate 14.3, Tartrate 18.7, Malate 18.6, Succinate 18.7, Benzenesulfonate 17.6, read-out: Cmax
  Cmax: 116 ng/mL
[1]; rat, plasma, 18.2 mg/kg, dose mg/kg: Compound 1 18.2, Phosphate 14.3, Tartrate 18.7, Malate 18.6, Succinate 18.7, Benzenesulfonate 17.6, read-out: Tmax
  Tmax: 50 min
[2]
  chemical stability (HPLC purity change, in words): no significant HPLC purity decrease
  Form Change at 3 weeks: No
  HPLC Purity at 3 weeks: 98.6 area %
  Initial HPLC Purity: 98.3 area %
[3]; listed as Free Base
  Hygroscopicity: Non-hygroscopic/
  water uptake at 80% RH: 0.07%
  Form change (FC) after DVS: No
[3]; listed as free base
  Hygroscopicity: non-hygroscopic
  water uptake at 80% RH: less than 0.2%
  Form change (FC) after DVS: no form change
[4]; FaSSIF, 24 hours
  Form change (FC) of residual solid, FaSSIF: No
[4]; FeSSIF, 24 hours
  Form change (FC) of residual solid, FeSSIF: No
[4]; SGF, 24 hours
  Form change (FC) of residual solid, SGF: No
[5]; pH 2.0 buffer, 24 hours
  Form change (FC) of residual solid, pH 2.0: Yes
[5]; 24 hours
  Form change (FC) of residual solid, pH 4.0: Yes
  Form change (FC) of residual solid, pH 6.0: No
  Form change (FC) of residual solid, pH 8.0: No
  Form change (FC) of residual solid, pH 10.0: No

## CN1CCN(Cc2ccc(Nc3ncc(Cl)c(Nc4ccccc4S(=O)(=O)N(C)C)n3)cc2)CC1.O=C(O)C(O)C(O)C(=O)O.O=C(O)C(O)C(O)C(=O)O [Form A, 2-((5-chloro-2-((4-((4-methylpiperazin-1-yl)methyl)phenyl)amino)pyrimidin-4-yl)amino)-N,N-dimethylbenzenesulfonamide di-tartrate salt]
[2]
  chemical stability (HPLC purity change, in words): no significant HPLC purity decrease
  Form Change at 3 weeks: No
  HPLC Purity at 3 weeks: 99.7 area %
  Initial HPLC Purity: 99.6 area %
[3]; di-tartrate salt
  water uptake at 80% RH: 4.6%
[3]
  Form change (FC) after DVS: No
[5]; pH 2, 4 and 6 buffers
  pH solubility compared between polymorphs (in words): higher solubility than other polymorphs
[5]; 24 hours
  Form change (FC) of residual solid, pH 4.0: Yes
  Form change (FC) of residual solid, pH 6.0: Yes
  Form change (FC) of residual solid, pH 8.0: Yes
  Form change (FC) of residual solid, pH 10.0: Yes
[6]
  Stability Results, Initial: 99.3%
  Stability Results, 40° C.: 99.3%
  Stability Results, 40° C./75% RH: 99.3%
  Stability Results, 60° C.: 99.3%
  Stability Results, 60° C./75% RH: 99.3%
[6]; di-tartrate salt
  Stability by HPLC (in words): No significant changes
[6]; listed as A, di-tartrate salt
  Stability by HPLC (in words): Stable
[7]
  Moisture sorption isotherm (in words): hygroscopic
  crystal form by XRPD after the moisture absorption/desorption cycle: maintained

## CN1CCN(Cc2ccc(Nc3ncc(Cl)c(Nc4ccccc4S(=O)(=O)N(C)C)n3)cc2)CC1.O=C(O)C(O)C(O)C(=O)O [Form D, 2-((5-chloro-2-((4-((4-methylpiperazin-1-yl)methyl)phenyl)amino)pyrimidin-4-yl)amino)-N,N-dimethylbenzenesulfonamide mono-tartrate salt]
[2]
  chemical stability (HPLC purity change, in words): no significant HPLC purity decrease
  Form Change at 3 weeks: No
  HPLC Purity at 3 weeks: 98.3 area %
  Initial HPLC Purity: 98.8 area %
[3]; mono-tartrate salt
  water uptake at 80% RH: 5.2%
  Form change (FC) after DVS: form change observed and Yes
[4]; FaSSIF
  Kinetic solubility in FaSSIF compared between forms (in words): lower solubility than other Forms A and B
[4]; FaSSIF, 24 hours
  Form change (FC) of residual solid, FaSSIF: Yes
[5]; 24 hours
  Form change (FC) of residual solid, pH 4.0: Yes
  Form change (FC) of residual solid, pH 6.0: Yes
  Form change (FC) of residual solid, pH 8.0: Yes
  Form change (FC) of residual solid, pH 10.0: Yes
[6]
  Stability Results, Initial: 98.4%
  Stability Results, 40° C.: 98.2%
  Stability Results, 40° C./75% RH: 98.4%
  Stability Results, 60° C.: 98.2%
  Stability Results, 60° C./75% RH: 98.2%
[6]; listed as D, mono-tartrate salt
  Stability by HPLC (in words): Stable
[6]; mono-tartrate salt
  Stability by HPLC (in words): No significant changes
[7]
  Moisture sorption isotherm (in words): hygroscopic
  crystal form by XRPD after the moisture absorption/desorption cycle: transformed to the other forms

## CN1CCN(Cc2ccc(Nc3ncc(Cl)c(Nc4ccccc4S(=O)(=O)N(C)C)n3)cc2)CC1.O=C(O)C[C@H](O)C(=O)O [Malate Salt]
[1]; [9]
  AUC0-24 hours: 515 ng·h/mL
  Cmax: 134 ng/mL
  Tmax: 30 min

## CN1CCN(Cc2ccc(Nc3ncc(Cl)c(Nc4ccccc4S(=O)(=O)N(C)C)n3)cc2)CC1.O=P(O)(O)O [Phosphate Salt]
[8]
  stability of the salt form (in words): undesirable stability characteristics

Source: patent publication US20220380348A1, “AXL INHIBITOR FORMULATIONS” (Sumitomo Dainippon Pharma Oncology, Inc., priority 2019, published 2022)
